Source: PMC1976805, “Preclinical pharmacokinetics of benznidazole” (British Journal of Cancer, 1984)
“And” between values parts separate entries of the source, which are not always exact repeats. Equal entries are not always repeated. Where two headings read alike, the source gives them in different places.

Key:
[1] = Whole plasma pharmacokinetics in dogs (HPLC); format: in vivo, dog; settings: for AUC(0-inf) / half-life / Tmax / Vd / clearance: dog
Description: (§1) Br. J. Cancer (1984), 50, 291-303 Preclinical pharmacokinetics of benznidazole P. Workman', R.A.S. White2, M.I. Walton', L.N. Owen2* & P.R. Twentyman' 1MRC Clinical Oncology and Radiotherapeutics Unit, MRC Centre, Hills Road, Cambridge CB2 2QH, and 2Department of Clinical Veterinary Medicine, University of Cambridge, Madingley Road, Cambridge CB3 OES, UK. […] We have investigated the detailed pharmacokinetics of benznidazole in mice, dogs and sheep to provide a data base for the estimation of doses required for chemosensitization in man. Pharmacokinetic behaviour was linear except at high doses in mice. Absorption was fairly rapid and bioavailability was complete following both i.p. administration in mice and oral administration in dogs. Elimination t4 values were longer than for MISO, being 90 min in mice, 4-5 h in sheep and 9-11 h in dogs. At doses giving linear kinetics, peak whole plasma concentrations per administered mgkg-1 were 0.75 jigml-1 for the i.p. route in mice and 1.8jugmlP' for the oral route in dogs. Though between 39 and 59% of plasma benznidazole was bound to protein, tissue penetration was generally good. Tissue/whole plasma ratios ranged from 59-99% for transplantable mouse tumours and from 14-70% for spontaneous dog neoplasms. Nervous tissue penetration was similar to that in tumours: brain/whole plasma ratios averaged between 61 and 76% in mice and 42% in dogs, while peripheral nerve/whole plasma ratios in dogs averaged 74%. Mean liver/whole plasma ratios were 42% and 71% in BALB/c and C3H/He mouse strains respectively. Only -5% of the administered dose was excreted unchanged in the urine, indicating the likelihood of extensive metabolism. […] Enhancement of CCNU response is likely to require circulating benznidazole concentrations of 10-30 pgml-1 and we predict that these will be obtained with oral doses of 6-20 mgkg- 1 in man. […] This enhancement, or chemosensitization, is usually greater than that seen in dose-limiting normal tissues, resulting in an improved therapeutic index. Because of the relatively high doses of MISO usually required for chemosensitization in mice (see above refs), and also because of its neurotoxicity in man (Dische et al., 1977), we have been interested in finding an improved chemosensitizer. […] The lipophilic ana- logue benznidazole (N-benzyl-(2-nitroimidazolyl) acetamide, Ro 07-1051; Radanil; Roche), the structure of which is shown in Figure 1, was selected for detailed study because of its ability to *Present address: Animal Health Trust, Small Animals Centre, Lanwades Park, Kennett, Newmarket, Suffolk CB8 7PN, UK. Correspondence: P. Workman. […] These findings have been confirmed independently by Siemann et al. (1983). Although benznidazole is used quite widely in South America to treat patients with the trypanosomal infection Chagas' disease or with mucotaneous Leishmaniasis (Barclay et al., 1978; Cerisola et al., 1978; Coura et al., 1978; Fava et al., 1978), apart from our preliminary studies (White et al., 1982) the only published data on its pharmaco- kinetics are for human plasma concentrations measured by polarography (Raaflub & Ziegler, 1979; Raaflub, 1980). Here we describe the pharmacokinetics of benznidazole in the mouse, sheep and dog, as determined by high-performance liquid chromatography (HPLC). […] The Macmillan Press Ltd., 1984 292 P. WORKMAN et al. particularly on plasma and tumour concentrations, have been used as a basis for the estimation of the benznidazole doses required in a Phase I trial of benznidazole plus CCNU, at present ongoing in our Unit. Materials and methods Animals and tumours Adult inbred male BALB/c mice were obtained from OLAC (Southern) Ltd. (Bicester, UK) and adult inbred C3H/He mice of both sexes from OLAC and our own breeding colony. Mice were housed in plastic cages on sawdust bedding made from soft white woods, and allowed laboratory chow and water ad lib. They were used at 20-35 g body wt.

[2] = Penetration into mouse liver; format: in vivo; settings: for liver/whole plasma ratio, overall mean / liver concentration / whole plasma concentration / Kp at 0.5 h / Kp at 3 h / Kp at 6 h / Kp: 78 mg kg-1 i.p.; for liver/whole plasma ratio, overall mean / Kp: 0.5-6 h; for Kp at 0.5 h / Kp at 3 h / Kp at 6 h / Kp: mouse, ip; for Kp at 0.5 h / Kp at 3 h / Kp at 6 h: liver / whole plasma, read-out: liver/whole plasma ratio; for Kp: liver, read-out: liver/whole plasma ratio, overall mean
Description: as §1

bovine serum albumin = system: bovine serum albumin; design: method as in Clarke & Wardman, cited in Watts et al., 1980; settings: ref Clarke & Wardman, cited in Watts et al., 1980; cited from earlier work
[3] = collie crossbred, plasma, iv, 5 mg/kg, dog C, 5 mg kg-1 i.v.
[4] = collie crossbred, plasma, iv, 5 mg/kg, dog D, 5 mg kg-1 i.v.
[5] = dog A, collie crossbred 18 kg, 25 mg kg-1 oral
[6] = dog B, collie crossbred 28 kg, 25 mg kg-1 oral

O=C(Cn1ccnc1[N+](=O)[O-])NCc1ccccc1 [benznidazole, N-benzyl-(2-nitroimidazolyl) acetamide]
AUC(0-inf) ([1]; beagle, plasma, po, 50 mg/kg, dog E, 50 mg kg-1 oral): 760 µg·h/mL | half-life ([1]; beagle, plasma, po, 50 mg/kg, dog E, 50 mg kg-1 oral, 95% confidence limits 5.3-6.1, read-out: elimination half-life t1/2β (converted)): 5.7 h | AUC(0-inf) ([1]; beagle, plasma, po, 50 mg/kg, dog F, 50 mg kg-1 oral): 707 µg·h/mL | half-life ([1]; beagle, plasma, po, 50 mg/kg, dog F, 50 mg kg-1 oral, 95% confidence limits 6.4-7.3, read-out: elimination half-life t1/2β (converted)): 6.8 h | Tmax ([1]; collie crossbred, beagle, plasma, dogs, oral administration, usual range, read-out: time to peak plasma concentration): 1 to 5 h | Vd ([1]; collie crossbred, plasma ultrafiltrate (unbound drug), iv, 5 mg/kg, dog C, 5 mg kg-1 i.v., read-out: volume of distribution (Vd area), unbound drug data): 2.05 L/kg | Vd ([1]; collie crossbred, plasma ultrafiltrate (unbound drug), iv, 5 mg/kg, dog D, 5 mg kg-1 i.v., read-out: volume of distribution (Vd area), unbound drug data): 1.87 L/kg | half-life ([1]; collie crossbred, plasma, dogs (large crossbred), summary value, read-out: elimination t1/2): 9 to 11 h | AUC(0-inf) [1, 3]: 105 µg·h/mL | clearance [1, 3]: 0.793 mL/min/kg | half-life ([1]; collie crossbred, plasma, iv, 5 mg/kg, dog C, 5 mg kg-1 i.v., 95% confidence limits 7.1-8.1, read-out: elimination half-life t1/2β (converted)): 7.6 h | Vd ([1]; collie crossbred, plasma, iv, 5 mg/kg, dog C, 5 mg kg-1 i.v., read-out: volume of distribution (Vd area), total plasma data): 0.52 L/kg | AUC(0-inf) [1, 4]: 138 µg·h/mL | clearance [1, 4]: 0.603 mL/min/kg | half-life ([1]; collie crossbred, plasma, iv, 5 mg/kg, dog D, 5 mg kg-1 i.v., 95% confidence limits 9.2-11.4, read-out: elimination half-life t1/2β (converted)): 10.2 h | Vd ([1]; collie crossbred, plasma, iv, 5 mg/kg, dog D, 5 mg kg-1 i.v., read-out: volume of distribution (Vd area), total plasma data): 0.53 L/kg | half-life ([1]; collie crossbred, plasma, iv, 5 mg/kg, dogs C and D, 5 mg kg-1 i.v., read-out: distribution phase half-life t1/2α (estimated by back-stripping, about)): 0.167 to 0.417 h | AUC(0-inf) ([1]; collie crossbred, plasma, po, 12.5 mg/kg, dog C, 12.5 mg kg-1 oral): 419 µg·h/mL | half-life ([1]; collie crossbred, plasma, po, 12.5 mg/kg, dog C, 12.5 mg kg-1 oral, 95% confidence limits 9.7-13.3, read-out: elimination half-life t1/2β (converted)): 11.2 h | AUC(0-inf) ([1]; collie crossbred, plasma, po, 12.5 mg/kg, dog D, 12.5 mg kg-1 oral): 450 µg·h/mL | half-life ([1]; collie crossbred, plasma, po, 12.5 mg/kg, dog D, 12.5 mg kg-1 oral, 95% confidence limits 17.3-22.0, read-out: elimination half-life t1/2β (apparent) (converted)): 19.4 h | AUC(0-inf) ([1]; collie crossbred, plasma, po, 25 mg/kg, dog A, 25 mg kg-1 oral, samples collected up to 9 h only): ~800 µg·h/mL | AUC(0-inf) ([1]; collie crossbred, plasma, po, 25 mg/kg, dog B, 25 mg kg-1 oral, samples collected up to 9 h only): ~800 µg·h/mL | AUC(0-inf) ([1]; collie crossbred, plasma, po, 25 mg/kg, dog C, 25 mg kg-1 oral): 687 µg·h/mL | half-life ([1]; collie crossbred, plasma, po, 25 mg/kg, dog C, 25 mg kg-1 oral, 95% confidence limits 8.9-10.6, read-out: elimination half-life t1/2β (converted)): 9.7 h | AUC(0-inf) ([1]; collie crossbred, plasma, po, 25 mg/kg, dog D, 25 mg kg-1 oral): 804 µg·h/mL | half-life ([1]; collie crossbred, plasma, po, 25 mg/kg, dog D, 25 mg kg-1 oral, 95% confidence limits 8.9-10.6, read-out: elimination half-life t1/2β (converted)): 9.7 h | half-life ([1]; collie crossbred, plasma, po, larger crossbred dogs, oral administration, read-out: elimination t1/2, range): 9.5 to 11.2 h | peak time [1, 5]: 5 h | peak whole plasma concentration [1, 5]: 48.4 µg/mL | peak time [1, 6]: 3 h | peak whole plasma concentration [1, 6]: 52.2 µg/mL | peak time ([1]; dog C, 5 mg kg-1 i.v.): 0.083 h | peak time ([1]; dog C, 12.5 mg kg-1 oral): 1 h | peak time ([1]; dog C, 25 mg kg-1 oral): 5 h | peak whole plasma concentration ([1]; dog C, collie crossbred 28 kg, 5 mg kg-1 i.v.): 12.7 µg/mL | peak whole plasma concentration ([1]; dog C, collie crossbred 28 kg, 12.5 mg kg-1 oral): 26.5 µg/mL | peak whole plasma concentration ([1]; dog C, collie crossbred 28 kg, 25 mg kg-1 oral): 38.9 µg/mL | peak time ([1]; dog D, 5 mg kg-1 i.v.): 0.083 h | peak time ([1]; dog D, 12.5 mg kg-1 oral): 12 h | peak time ([1]; dog D, 25 mg kg-1 oral): 3 h | peak whole plasma concentration ([1]; dog D, collie crossbred 20 kg, 5 mg kg-1 i.v.): 12.4 µg/mL | peak whole plasma concentration ([1]; dog D, collie crossbred 20 kg, 12.5 mg kg-1 oral (slow, prolonged absorption)): 13.1 µg/mL | peak whole plasma concentration ([1]; dog D, collie crossbred 20 kg, 25 mg kg-1 oral): 46.5 µg/mL | peak whole plasma concentration ([1]; dog E, beagle 9 kg, 50 mg kg-1 oral): 59.8 µg/mL | peak time ([1]; dog F, 50 mg kg-1 oral): 3 h | peak whole plasma concentration ([1]; dog F, beagle 10 kg, 50 mg kg-1 oral): 54.8 µg/mL | Tmax ([1]; plasma, po, dogs, discussion summary, read-out: time of peak concentrations after oral dosing): 3 to 5 h | overall oral bioavailability (dose-normalised AUC0-∞ oral vs i.v.) ([1]; dogs C and D): about 130% | peak concentrations readily achieved ([1]; dogs, oral doses of 25-50 mg kg-1): 50 µg/mL | average peak whole plasma concentration ([1]; large crossbred dogs, 12.5 mg kg-1 oral): 20 µg/mL | average peak whole plasma concentration ([1]; large crossbred dogs, 25 mg kg-1 oral): 47 µg/mL | mean peak whole plasma concentration per administered mg kg-1 ([1]; large crossbred dogs, oral route (s.e., n=6)): 1.8 µg ml-1 and 1.77 + 0.17 µg ml-1 | liver/whole plasma ratio, overall mean ([2]; BALB/c): 41.7% | liver concentration ([2]; BALB/c, 0.5 h): 20.8 µg/g | whole plasma concentration ([2]; BALB/c, 0.5 h): 45.3 µg/mL | liver concentration ([2]; BALB/c, 3.0 h): 10.3 µg/g | whole plasma concentration ([2]; BALB/c, 3.0 h): 29.8 µg/mL | liver concentration ([2]; BALB/c, 6.0 h): 8.2 µg/g | whole plasma concentration ([2]; BALB/c, 6.0 h): 12.2 µg/mL | liver/whole plasma ratio, overall mean ([2]; C3H/He, n=29): 70.6% and 71 + 8% | liver concentration ([2]; C3H/He, 0.5 h): 25.2 µg/g | whole plasma concentration ([2]; C3H/He, 0.5 h): 33.9 µg/mL | liver concentration ([2]; C3H/He, 3.0 h): 17.3 µg/g | whole plasma concentration ([2]; C3H/He, 3.0 h): 34.1 µg/mL | liver concentration ([2]; C3H/He, 6.0 h): 17.8 µg/g | whole plasma concentration ([2]; C3H/He, 6.0 h): 21.1 µg/mL | Kp at 0.5 h ([2]; both sexes, C3H/He, 78 mg kg-1, C3H/He, 0.5 h): 0.758 | Kp at 3 h ([2]; both sexes, C3H/He, 78 mg kg-1, C3H/He, 3.0 h): 0.533 | Kp at 6 h ([2]; both sexes, C3H/He, 78 mg kg-1, C3H/He, 6.0 h): 0.843 | Kp ([2]; both sexes, C3H/He, 78 mg kg-1, C3H/He, n=29): 0.71 | Kp at 0.5 h ([2]; male, BALB/c, 78 mg kg-1, BALB/c, 0.5 h): 0.466 | Kp at 3 h ([2]; male, BALB/c, 78 mg kg-1, BALB/c, 3.0 h): 0.348 | Kp at 6 h ([2]; male, BALB/c, 78 mg kg-1, BALB/c, 6.0 h): 0.439 | Kp ([2]; male, BALB/c, 78 mg kg-1, BALB/c): 0.42 | peak liver concentration that would be produced ([2]; mice, 13 mg kg-1 i.p.): ~7 µg/g | liver concentration ([2]; mice, discussion summary): 21 µg/g | binding (bovine serum albumin): 46%
